How the values were obtained:
CHP134 = CHP134 CellTiter-Glo (CTG) Assay; assay type: cell-based; settings: Homo sapiens, CHP-134, 120 h; viable cells by CellTiter-Glo after 5 days
Protocol: […] cells (DSMZ-German Collection of Microorganisms and Cell Cultures, Braunschweig Germany) were cultured in RPMI 1640 supplemented with 10% fetal bovine serum, penicillin (100 U/ml), 1% L-Glutamine and streptomycin ([…]). Cells were seeded (200 cells/well) in 384-well plates for 16 hours. On day two, nine serial 1:3 compound dilutions were made in DMSO in a 96-well plate. The compounds were then further diluted into growth media using a BRAVO robot (Agilent, Santa Clara, CA). The diluted compounds were then added to quadruplicate wells in the 384-well cell plate and incubated at 37° C. and 5% CO2. After 5 days, relative numbers of viable cells were measured by luminescence using CellTiter-Glo® (Promega) according to the manufacturer's instructions and read on a SPARK Multimode Microplate Reader (Tecan, Mannedorf Switzerland). The IC50 calculations for the values reported in Table 2 were carried out using Prism 6.0 software (GraphPad, San Diego).

human recombinant PLK4 = biological target: T1, human recombinant PLK4 (Homo sapiens, UniProt O00444); test: PLK4 Biochemical Assay (ADP-Glo); settings: 0.5 nM PLK4, 8.0 μM ATP, 4.7 μM MBP, 6 hours at RT
T1 construct: purchased ThermoFisher PV6396
T1 sequence (O00444 1-970): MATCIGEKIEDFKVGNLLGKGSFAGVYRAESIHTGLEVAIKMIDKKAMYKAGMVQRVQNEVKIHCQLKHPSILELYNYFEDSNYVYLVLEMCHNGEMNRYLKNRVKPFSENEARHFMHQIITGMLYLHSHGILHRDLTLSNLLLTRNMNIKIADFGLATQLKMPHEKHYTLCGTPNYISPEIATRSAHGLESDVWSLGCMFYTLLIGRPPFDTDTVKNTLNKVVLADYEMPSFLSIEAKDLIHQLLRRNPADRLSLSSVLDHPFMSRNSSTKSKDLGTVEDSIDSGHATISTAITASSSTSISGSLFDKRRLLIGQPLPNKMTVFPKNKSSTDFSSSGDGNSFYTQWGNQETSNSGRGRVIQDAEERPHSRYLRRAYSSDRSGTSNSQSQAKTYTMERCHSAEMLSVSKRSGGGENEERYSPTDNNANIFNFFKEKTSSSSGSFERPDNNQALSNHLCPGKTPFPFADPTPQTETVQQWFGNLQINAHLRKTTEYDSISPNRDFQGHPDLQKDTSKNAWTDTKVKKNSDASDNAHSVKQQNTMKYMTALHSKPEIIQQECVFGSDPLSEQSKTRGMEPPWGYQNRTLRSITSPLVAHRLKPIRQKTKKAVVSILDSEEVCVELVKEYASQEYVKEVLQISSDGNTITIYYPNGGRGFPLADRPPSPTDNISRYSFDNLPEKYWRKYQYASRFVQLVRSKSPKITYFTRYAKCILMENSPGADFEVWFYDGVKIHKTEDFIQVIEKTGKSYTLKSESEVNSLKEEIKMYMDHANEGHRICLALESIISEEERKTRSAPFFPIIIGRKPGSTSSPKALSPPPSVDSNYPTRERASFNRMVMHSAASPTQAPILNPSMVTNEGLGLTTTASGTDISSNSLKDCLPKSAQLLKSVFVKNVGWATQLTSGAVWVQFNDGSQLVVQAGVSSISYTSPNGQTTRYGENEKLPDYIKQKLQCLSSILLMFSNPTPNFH
Protocol: Activity of human recombinant PLK4 (ThermoFisher, cat #PV6396) was measured by quantification of adenosine diphosphate (ADP) using the ADP-Glo Kinase Assay Kit (Promega, cat #V9102). […] 5 μL of 1.0 nM PLK4 protein in assay buffer (50 mM HEPES, pH 7.5, 0.01% Brij-35, 0.01% BSA, 10 mM MgCl2, 1 mM EGTA, 1 mM DTT) was added to the plates. Test compounds and PLK4 were incubated for 15 minutes at room temperature (RT). […] Reactions were stopped and the remaining ATP depleted by adding 10 μL of ADP-Glo reagent (Promega, cat #V912B) and incubating for 40 minutes at RT. The simultaneous conversion of the remaining ADP to ATP and measurement of the newly synthesized ATP was achieved by addition of 20 μL Kinase Detection reagent (Promega, cat #V914B), incubation for 30 min at RT, and luminescence detection using the EnVision plate reader (PerkinElmer). […] The IC50 values reported in Table 2 were determined using four parameter non-linear regression curve fit.

Row | Structure (SMILES) | IC50 (human recombinant PLK4) [nM] | IC50 (CHP134) [nM]
1 | COc1ccc2c(c1)[C@]1(C[C@H]1c1ccc3c(Nc4cc(-c5nnn(C)n5)ccc4OC)n[nH]c3c1)C(=O)N2 [Example 21, (1R,2S)-5′-methoxy-2-{3-[2-methoxy-5-(2-methyl-2H-tetrazol-5-yl)anilino]-1H-indazol-6-yl}spiro[cyclopropane-1,3′-indol]-2′(1′H)-one] | 2.6 | 400
2 | CCOc1cc(S(C)(=O)=O)ccc1Nc1n[nH]c2cc([C@@H]3C[C@@]34C(=O)N(C)c3ccc(OC)cc34)ccc12 [Example 23, (1R,2S)-2-{3-[2-ethoxy-4-(methanesulfonyl)anilino]-1H-indazol-6-yl}-5′-methoxy-1′-methylspiro[cyclopropane-1,3′-indol]-2′(1′H)-one] | 1.41 | 111
3 | COc1ccc2c(c1)[C@]1(C[C@H]1c1ccc3c(Nc4nc(-c5cnn(C)c5)cnc4OC)n[nH]c3c1)C(=O)N2 [Example 24, (1R,2S)-5′-methoxy-2-(3-{[3-methoxy-6-(1-methyl-1H-pyrazol-4-yl)pyrazin-2-yl]amino}-1H-indazol-6-yl)spiro[cyclopropane-1,3′-indol]-2′(1′H)-one] | 0.408 | 49.9
4 | COc1ccc2c(c1)[C@]1(C[C@H]1c1ccc3c(Nc4cc(-c5cnn(C)c5)cnc4OC)n[nH]c3c1)C(=O)N2 [Example 26, (1R,2S)-5′-methoxy-2-(3-{[2-methoxy-5-(1-methyl-1H-pyrazol-4-yl)pyridin-3-yl]amino}-1H-indazol-6-yl)spiro[cyclopropane-1,3′-indol]-2′(1′H)-one] | 0.84 | 171
5 | CCOc1ccc(-c2nccs2)nc1Nc1n[nH]c2cc([C@@H]3C[C@@]34C(=O)Nc3ccc(OC)cc34)ccc12 [Example 28, (1R,2S)-2-(3-{[3-ethoxy-6-(1,3-thiazol-2-yl)pyridin-2-yl]amino}-1H-indazol-6-yl)-5′-methoxyspiro[cyclopropane-1,3′-indol]-2′(1′H)-one] | 0.341 | 16.7
6 | COc1ccc2c(c1)[C@]1(C[C@H]1c1ccc3c(Nc4nc(-c5cnn(C)c5)ncc4OC)n[nH]c3c1)C(=O)N2 [Example 31, (1R,2S)-5′-methoxy-2-(3-{[5-methoxy-2-(1-methyl-1H-pyrazol-4-yl)pyrimidin-4-yl]amino}-1H-indazol-6-yl)spiro[cyclopropane-1,3′-indol]-2′(1′H)-one] | 0.259 | 135
7 | CCOc1ncc(-c2nccs2)nc1Nc1n[nH]c2cc([C@@H]3C[C@@]34C(=O)Nc3ccc(OC)cc34)ccc12 [Example 35, (1R,2S)-2-(3-{[3-ethoxy-6-(1,3-thiazol-2-yl)pyrazin-2-yl]amino}-1H-indazol-6-yl)-5′-methoxyspiro[cyclopropane-1,3′-indol]-2′(1′H)-one] | 0.338 | 13.8
8 | CCOc1cc(-n2cncn2)cnc1Nc1n[nH]c2cc([C@@H]3C[C@@]34C(=O)Nc3ccc(OC)cc34)ccc12 [Example 38, (1R,2S)-2-(3-{[3-ethoxy-5-(1H-1,2,4-triazol-1-yl)pyridin-2-yl]amino}-1H-indazol-6-yl)-5′-methoxyspiro[cyclopropane-1,3′-indol]-2′(1′H)-one] | 0.817 | 266
9 | COc1ccc2c(c1)[C@]1(C[C@H]1c1ccc3c(Nc4cc(-c5cnn(CC(F)F)c5)ccc4OC)n[nH]c3c1)C(=O)N2 [Example 39, (1R,2S)-2-(3-{5-[1-(2,2-difluoroethyl)-1H-pyrazol-4-yl]-2-methoxyanilino}-1H-indazol-6-yl)-5′-methoxyspiro[cyclopropane-1,3′-indol]-2′(1′H)-one] | 1.93 | 202
10 | COc1ccc2c(c1)[C@]1(C[C@H]1c1ccc3c(Nc4nc(-c5cnco5)ncc4OC)n[nH]c3c1)C(=O)N2 [Example 40, (1R,2S)-5′-methoxy-2-(3-{[5-methoxy-2-(1,3-oxazol-5-yl)pyrimidin-4-yl]amino}-1H-indazol-6-yl)spiro[cyclopropane-1,3′-indol]-2′(1′H)-one] | 0.28 | 237
11 | CCOc1ncc(-c2nccs2)cc1Nc1n[nH]c2cc([C@@H]3C[C@@]34C(=O)Nc3ccc(OC)cc34)ccc12 [Example 41, (1R,2S)-2-(3-{[2-ethoxy-5-(1,3-thiazol-2-yl)pyridin-3-yl]amino}-1H-indazol-6-yl)-5′-methoxyspiro[cyclopropane-1,3′-indol]-2′(1′H)-one] | 0.722 | 131

Second part, led by results:

Row | IC50 (human recombinant PLK4) [nM] | Structure (SMILES) | IC50 (CHP134) [nM]
12 | 1.06 | COc1ccc2c(c1)[C@]1(C[C@H]1c1ccc3c(Nc4cc(-c5cnn(C)c5)ncc4OC)n[nH]c3c1)C(=O)N2 [Example 27, (1R,2S)-5′-methoxy-2-(3-{[5-methoxy-2-(1-methyl-1H-pyrazol-4-yl)pyridin-4-yl]amino}-1H-indazol-6-yl)spiro[cyclopropane-1,3′-indol]-2′(1′H)-one] | 463
13 | 1.95 | CCOc1cc(-c2cn(C)cn2)ccc1Nc1n[nH]c2cc([C@@H]3C[C@@]34C(=O)Nc3ccc(OC)cc34)ccc12 [Example 29, (1R,2S)-2-{3-[2-ethoxy-4-(1-methyl-1H-imidazol-4-yl)anilino]-1H-indazol-6-yl}-5′-methoxyspiro[cyclopropane-1,3′-indol]-2′(1′H)-one] | 466
14 | 0.694 | COc1ccc2c(c1)[C@]1(C[C@H]1c1ccc3c(Nc4cc(-c5ccsn5)ccc4OC)n[nH]c3c1)C(=O)N2 [Example 30, (1R,2S)-5′-methoxy-2-{3-[2-methoxy-5-(1,2-thiazol-3-yl)anilino]-1H-indazol-6-yl}spiro[cyclopropane-1,3′-indol]-2′(1′H)-one] | 97.4
15 | 0.827 | COc1ccc2c(c1)[C@]1(C[C@H]1c1ccc3c(Nc4cc(-c5ccon5)ccc4OC)n[nH]c3c1)C(=O)N2 [Example 32, (1R,2S)-5′-methoxy-2-{3-[2-methoxy-5-(1,2-oxazol-3-yl)anilino]-1H-indazol-6-yl}spiro[cyclopropane-1,3′-indol]-2′(1′H)-one] | 106
16 | 0.753 | CCOc1ccc(-c2nccs2)cc1Nc1n[nH]c2cc([C@@H]3C[C@@]34C(=O)Nc3ccc(OC)cc34)ccc12 [Example 33, (1R,2S)-2-{3-[2-ethoxy-5-(1,3-thiazol-2-yl)anilino]-1H-indazol-6-yl}-5′-methoxyspiro[cyclopropane-1,3′-indol]-2′(1′H)-one] | 41.4
17 | 1.07 | CCOc1cnc(-c2nccs2)cc1Nc1n[nH]c2cc([C@@H]3C[C@@]34C(=O)Nc3ccc(OC)cc34)ccc12 [Example 34, (1R,2S)-2-(3-{[5-ethoxy-2-(1,3-thiazol-2-yl)pyridin-4-yl]amino}-1H-indazol-6-yl)-5′-methoxyspiro[cyclopropane-1,3′-indol]-2′(1′H)-one] | 139
18 | 1.8 | CCOc1ccc(-c2cnn(C)c2)cc1Nc1n[nH]c2cc([C@@H]3C[C@@]34C(=O)Nc3ccc(OC)cc34)ccc12 [Example 37, (1R,2S)-2-{3-[2-ethoxy-5-(1-methyl-1H-pyrazol-4-yl)anilino]-1H-indazol-6-yl}-5′-methoxyspiro[cyclopropane-1,3′-indol]-2′(1′H)-one] | 442
